The values below come from US20090203716A1, “Pyrimidine low molecular weight ligands for modulating hormone receptors” (The Government of the United States of America as …, priority 2006, published 2009).

For one assay, the target named is T1, human TSH receptor (Homo sapiens, UniProt P16473).
T1 construct: expressed in transfected cells
Nature of the assay: intracellular cAMP accumulation, agonism at TSHR stably expressed in HEK EM 293 cells. The following applies: cAMP. Format: cell-based. On the procedure: With reference to Table 1, exemplary disclosed compounds were evaluated against human TSH receptor and human LHCG receptor that were stably expressed in HEK 293 EM cells as previously described by Libert et al. (Biochem. Biophys. Res. Commun. 1989, 165, 1250-1255); and by Schulz et al. (Mol. Endocrinol. 1999, 13, 181-190). Cell surface expression of TSH receptor and LHCG receptor were determined via FACS analysis (Kleinau, G.; Jäschke, H.; Neumann, S.; Lättig, S.; Paschke, R.; Krause, G. J. Biol. Chem. 2004, 279, 51590-51600). Agonism of compounds 3-20 were determined via measurement of intracellular cyclic AMP accumulation. […] For example, […] certain compounds disclosed herein exerted no discernible effect on the FSH receptor.
Cells were cultured for 48 h in 24-well plates before incubation for 1 h in serum-free DMEM containing 1 mM 3-isobutyl-1-methylxanthine (IBMX) (SIGMA) and bovine TSH (1.8 μM) (SIGMA) or human LH (1000 ng/ml) (Dr. A. Parlow, NIDDK National Hormone and Pituitary Program) or compounds 3-19 (0-100 μM) in a humidified 5% CO2 incubator. Following aspiration of the medium after incubation with compounds, cells were lysed using lysis buffer 1 of the cAMP Biotrak Enzymeimmunoassay (EIA) System (Amersham Biosciences). The cAMP content of the cell lysate was determined using the manufacturer's protocol. The efficacy of receptor activation by small molecule modulators is expressed as % of maximum response of LHCG receptor or TSH receptor to LH or TSH, respectively. The potency (EC50) was obtained from dose response curves (0-100 μM compound) by data analysis with GraphPad Prism 4 for Windows. With reference to FIG. 1, intracellular cAMP production was determined in response to 100 μM of each compound and is expressed as % of maximum response of TSHR/LHCGR to TSH (100 mU/ml)/LH (1000 ng/ml). The data are presented as mean±SEM of two independent experiments, each performed in duplicate.
(§1) Transiently transfected cells were cultured for 48 hours before the cAMP assay. HEK-EM 293 cells stably expressing TSHR, LHCGR or FSHR were seeded into 24-well plates with a density of 2.2×10^5 cells/well 24 hours before the cAMP assay. After removal of growth medium, cells were incubated for 1 hour in HBSS (Cellgro) with 10 mM HEPES (Cellgro) containing 1 mM 3-isobutyl-1-methylxanthine (IBMX) (Sigma) and the ligand of interest in a humidified 5% CO2 incubator at 37° C. The intracellular cAMP content was determined with the cAMP Biotrak Enzymeimmunoassay (EIA) System (GE Healthcare). Data were analyzed using GraphPad Prism 4 for Windows. Receptor expression was measured as described in Jaschke et al., J Biol Chem 281:9841-9844.

For the next assay, the target named is T2, TSHR mutant Y7.42A (Homo sapiens, UniProt P16473, Y667A).
T2 construct: expressed in transfected cells; host or cells: HEK-EM 293 (transient, FuGENE 6)
Nature of the assay: cAMP production in HEK-EM 293 cells transiently expressing TSHR mutant Y7.42A. Type of assay: cell-based. The note with it: 30 μM compound. The method, then:
(§2) HEK-EM 293 cells were grown in Dulbecco's modified Eagle's Medium (DMEM) supplemented with 10% fetal bovine serum, 100 units/ml penicillin and 10 μg/ml streptomycin (Life Technologies Inc.) at 37° C. in a humidified 5% CO2 incubator. Cells were transiently transfected with wild type TSHR and mutant receptors in 24-well plates (7.5×10^4 cells per well) with 0.4 μg DNA/well using FuGENE™ 6 reagent (Roche) according to the manufacturer's protocol.
(§3) The M9 mutant is described in Jaschke et al., J Biol Chem 281:9841-9844. The Y7.42A mutant was introduced into hTSHR-pcDNA3.1 via the QuickChange XL Site-Directed Mutagenesis kit (Stratagene). The construct was verified by sequencing (MWG Biotech).
(§4) Transiently transfected cells were cultured for 48 hours before the cAMP assay. HEK-EM 293 cells stably expressing TSHR, LHCGR or FSHR were seeded into 24-well plates with a density of 2.2×10^5 cells/well 24 hours before the cAMP assay. […] The intracellular cAMP content was determined with the cAMP Biotrak Enzymeimmunoassay (EIA) System (GE Healthcare). Data were analyzed using GraphPad Prism 4 for Windows. Receptor expression was measured as described in Jaschke et al., J Biol Chem 281:9841-9844.
(In general: Changes in cAMP serve as a functional read-out for many G protein-coupled receptors.)

For the next assay, the system named is TSHR mutant M9. Nature of the assay: cAMP production in HEK-EM 293 cells transiently expressing TSHR mutant M9. Format: cell-based, human. The note with it: 30 μM compound. On the procedure: as §2, §3, §4
Another assay addresses TSHR (Homo sapiens, UniProt P16473). The assay is described as follows: inhibition of TSH-mediated cAMP response in HEK-EM 293 cells stably expressing TSHR. Type of assay: cell-based. Set-up: expressed in transfected cells. The method, then:
as §1
The TSH-mediated cAMP response of TSHR was inhibited by a maximum of 70.8±5.5% at 30 μM compound 52. […] Compound 52 has no activity at FSHR.
To exclude the possibility that compound 52 might be acting independently of TSHR by building aggregates with TSH, thereby inhibiting the TSH-induced response, tests were conducted for a possible aggregation between these two ligands. Compound 52 and TSH were preincubated for up to 15 minutes before addition to HEK-EM 293 cells stably expressing TSHR. […] There was no difference in the antagonistic effect whether TSH and compound 52 were preincubated together or not (data not shown) thereby excluding the possibility that its effect was caused by aggregation with TSH.

Sequence of TSHR (P16473 21-764): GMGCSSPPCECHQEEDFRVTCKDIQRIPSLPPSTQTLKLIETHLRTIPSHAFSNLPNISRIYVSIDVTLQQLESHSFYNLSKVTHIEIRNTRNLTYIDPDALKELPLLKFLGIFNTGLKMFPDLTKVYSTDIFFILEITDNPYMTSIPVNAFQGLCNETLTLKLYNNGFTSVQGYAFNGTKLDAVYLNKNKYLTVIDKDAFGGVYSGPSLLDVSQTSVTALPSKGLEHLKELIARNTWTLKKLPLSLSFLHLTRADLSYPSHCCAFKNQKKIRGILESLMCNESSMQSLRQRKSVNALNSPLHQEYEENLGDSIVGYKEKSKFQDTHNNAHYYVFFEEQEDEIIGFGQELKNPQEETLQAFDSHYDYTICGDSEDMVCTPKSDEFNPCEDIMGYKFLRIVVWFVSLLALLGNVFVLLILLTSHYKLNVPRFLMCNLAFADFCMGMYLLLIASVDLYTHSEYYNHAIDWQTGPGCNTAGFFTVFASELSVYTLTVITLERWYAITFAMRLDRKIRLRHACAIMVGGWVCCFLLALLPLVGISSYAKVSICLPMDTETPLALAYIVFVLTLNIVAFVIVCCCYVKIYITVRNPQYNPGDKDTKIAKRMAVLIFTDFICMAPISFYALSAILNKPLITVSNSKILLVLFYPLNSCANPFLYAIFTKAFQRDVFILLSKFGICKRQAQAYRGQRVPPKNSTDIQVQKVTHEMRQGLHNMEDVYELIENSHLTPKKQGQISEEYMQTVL
T1 sequence (P16473 21-764): as above
T2 sequence (P16473 21-764 Y667A): as the sequence (P16473 21-764) above, with Y647A counted along it

A word on the inhibition: it is the change of the read-out against control, counted positive when it falls. The term IC50 denotes the midpoint of a concentration-inhibition curve. High values mean weaker potency in that assay, low ones greater potency in that assay. On to `COC/C=C/c1ccc(-c2nc(SC)nc3sc(C(=O)NC(C)(C)C)c(N)c23)cc1` [Compound 52], for which the “agonist activity at TSHR” value at human TSH receptor was “no agonist activity”. The “cAMP production, fold over TSHR basal activity, Y7.42A” value at TSHR mutant Y7.42A is listed as 3.2±0.9 fold. The “cAMP production, fold over TSHR basal activity, M9” value in the assay on TSHR mutant M9 is listed as 13.2±1.7 fold. For the same compound, on TSHR, the “antagonistic activity at TSHR in cAMP assay” value is reported as “antagonist”; the “selectivity toward TSHR compared to LHCGR and FSHR” value was “selective toward TSHR”. Also, the “antagonistic effect with or without preincubation with TSH (aggregation test)” value on TSHR (30 μM compound, 1.8 nM TSH, preincubated up to 15 minutes) is “no difference”. In addition, on TSHR (HEK-EM293, read-out: maximum inhibition of TSH-mediated cAMP response of TSHR), the inhibition at 30 µM is 70.8 ± 5.5%. At TSHR (with EC50 dose of TSH), this compound showed an IC50 of 4.2 µM.
